# Literature values as cited in patent US20150133409A1, “TOPICAL OPHTHALMIC, OTIC, AND NASAL COMPOSITIONS OF CIPROFLOXACIN” (priority 2013, published 2015).
# Read-outs that look alike come from different tables or passages of the source.
# Conditions: aqueous 0.2 to 1 weight percent ciprofloxacin
smiles,measurement,setting,value
O=C(O)c1cn(C2CC2)c2cc(N3CCNCC3)c(F)cc2c1=O [ciprofloxacin],pH at which crystalline precipitation of ciprofloxacin occurs,5° C.,above 5
same,pH at which crystalline precipitation of ciprofloxacin occurs,room temperature,above 5.5
